In experiment [1] the test system is T-Rex 293 cell line SC3 cells having increased expression of androgen receptor protein. Nature of the experiment: Cellular growth inhibition, T-Rex 293 SC3 cells with increased androgen receptor expression (doxycycline), CellTiter-Glo. The format is cell-based. The note with it: T-Rex 293 SC3 cells with increased androgen receptor expression (exposed to 10 ng/mL doxycycline), 72 hours, CellTiter-Glo; read-out: GI50. Summed up:
(§1)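 SC3, a T-Rex 293 clone with doxycycline-inducible wild-type androgen receptor, was seeded in phenol red-free DMEM with 10% charcoal-dextran FBS, with or without 10 ng/mL doxycycline. Compound added at 24 h (0.5% DMSO) for 72 h at 37° C. CellTiter-Glo 2.0 luminescence; GI50 from four-parameter fit.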
On the technique in general: Cellular ATP, detected with luciferase, serves as a proxy for viable cell number.

The test system of experiment [2] is T-Rex 293 cell line SC3 cells lacking increased expression of androgen receptor protein. Nature of the experiment: Cellular growth inhibition, T-Rex 293 SC3 cells lacking increased androgen receptor expression (no doxycycline), CellTiter-Glo. It is filed as cell-based. The settings on record: T-Rex 293 SC3 cells lacking increased androgen receptor expression (not exposed to doxycycline), 72 hours, CellTiter-Glo; read-out: GI50. Put shortly:
as §1

In the next experiment the test system is VCaP cells. Kind of experiment: Cellular growth inhibition assay for VCaP cells, CellTiter-Glo. It is filed as cell-based, human. The settings on record: VCaP cells, 72 hours, CellTiter-Glo, read-out: GI50. Summed up: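 GI50 values come from four-parameter curve fits of luminescence data normalized to a zero baseline. Compound, in medium with 0.5% DMSO, was added one day after plating and left for 72 h before CellTiter-Glo 2.0 addition.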

The test system of the next experiment is T47D cells. Nature of the experiment: Cellular growth inhibition assay for T47D cells, CellTiter-Glo. It is filed as cell-based, human. The settings on record: 72 hours treatment, CellTiter-Glo 2.0. Put shortly: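 Luminescence from CellTiter-Glo 2.0 after 72 h of compound exposure gives the viability signal. Cells grew in insulin-supplemented (0.2 units/mL) DMEM with 10% FBS and were treated one day after seeding at 0.5% DMSO. GI50 values come from four-parameter nonlinear regression.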

Each structure is given as a SMILES string. Read-outs that look alike come from different tables or passages of the source.

The source of these data is US20250388575A1, “HETEROBIFUNCTIONAL COMPOUNDS AND METHODS OF TREATING DISEASE” (Halda Therapeutics OpCo, Inc., priority 2022, published 2025).

Turning to `Cn1cc(-c2cc(C(C)(C)O)ccc2Oc2ccc(CCCCC3CN(c4ccc(C(=O)N[C@H]5CC[C@H](Oc6ccc(C#N)c(Cl)c6)CC5)nn4)C3)cc2)c2cc[nH]c2c1=O` [I-133], the GI50 is less than 0.5 µM in experiment [1], 0.5 to 1.5 µM in experiment [2], less than 0.5 µM with VCaP cells and less than 0.5 µM in the experiment with T47D cells.

Turning to `Cn1cc(-c2cc(C(C)(C)O)ccc2Oc2ccc(CCC3C4CN(c5ccc(C(=O)N[C@H]6CC[C@H](Oc7ccc(C#N)c(Cl)c7)CC6)nn5)CC34)cc2)c2cc[nH]c2c1=O` (stereo partly shown) [I-134], the GI50 in experiment [1] was less than 0.5 µM; in experiment [2], more than 3 µM; in the experiment with VCaP cells it was less than 0.5 µM; with T47D cells, less than 0.5 µM.

Take `Cn1cc(-c2cc(C(C)(C)O)ccc2Oc2ccc(CCCC3CCN(c4ccc(C(=O)N[C@H]5CC[C@H](Oc6ccc(C#N)c(Cl)c6)CC5)nn4)C3)cc2)c2cc[nH]c2c1=O` (stereo partly shown) [I-135]: the concentration for 50% growth inhibition (GI50) (in experiment [1]; in experiment [2]; with VCaP cells (Homo sapiens); with T47D cells (Homo sapiens)) was less than 0.5 µM each time.

Consider `Cn1cc(-c2cc(C(C)(C)O)ccc2Oc2ccc(C3CC(N4CCN(c5ccc(C(=O)N[C@H]6CC[C@H](Oc7ccc(C#N)c(Cl)c7)CC6)nn5)CC4)C3)cc2)c2cc[nH]c2c1=O` (stereo partly shown) [I-136], for which the GI50 (in experiment [1]; in experiment [2]; with VCaP cells; with T47D cells) was less than 0.5 µM each time.

On to `CN(C1CCN(c2ccc(C(=O)N[C@H]3CC[C@H](Oc4ccc(C#N)c(Cl)c4)CC3)nn2)CC1)C1CN(c2ccc(Oc3ccc(C(C)(C)O)cc3-c3cn(C)c(=O)c4[nH]ccc34)cc2)C1` [I-140], for which the concentration for 50% growth inhibition (GI50) (in experiment [1]; in experiment [2]; with VCaP cells (Homo sapiens); with T47D cells (Homo sapiens)) was less than 0.5 µM in each case.

With `CN(C1CCN(c2ccc(C(=O)N[C@H]3CC[C@H](Oc4ccc(C#N)c(Cl)c4)CC3)nn2)CC1)C1CN(c2cccc(Oc3ccc(C(C)(C)O)cc3-c3cn(C)c(=O)c4[nH]ccc34)c2F)C1` [I-142], the GI50 (in experiment [1]; in experiment [2]; in the experiment on VCaP cells (Homo sapiens); in the experiment on T47D cells (Homo sapiens)) was less than 0.5 µM in each case.

Consider `CN(C1CN(c2ccc(Oc3ccc(C(C)(C)O)cc3-c3cn(C)c(=O)c4[nH]ccc34)cc2)C1)C1CN(c2ccc(C(=O)N[C@H]3CC[C@H](Oc4ccc(C#N)c(Cl)c4)CC3)nn2)C1` [I-143], for which the concentration for 50% growth inhibition (GI50) in experiment [1] was less than 0.5 µM; in experiment [2], more than 3 µM; in the experiment with VCaP cells it was less than 0.5 µM; in the experiment with T47D cells, less than 0.5 µM.

Regarding `Cn1cc(-c2cc(C(C)(C)O)ccc2Oc2ccc(N3CC4(CCN(c5ccc(C(=O)N[C@H]6CC[C@H](Oc7ccc(C#N)c(Cl)c7)CC6)nn5)CC4)C3)cc2)c2cc[nH]c2c1=O` [I-144], the GI50 in experiment [1] is less than 0.5 µM; in experiment [2], 0.5 to 1.5 µM; with VCaP cells, less than 0.5 µM; with T47D cells, less than 0.5 µM.

`Cn1cc(-c2cc(C(C)(C)O)ccc2Oc2ccc(N3CC(OC4CCN(c5ccc(C(=O)N[C@H]6CC[C@H](Oc7ccc(C#N)c(Cl)c7)CC6)nn5)CC4)C3)cc2)c2cc[nH]c2c1=O` [I-146]: the 50% growth inhibitory concentration (GI50) (in experiment [1]; in experiment [2]; in the experiment on VCaP cells (Homo sapiens); in the experiment on T47D cells (Homo sapiens)) was less than 0.5 µM each time.

Turning to `Cn1cc(-c2cc(C(C)(C)O)ccc2Oc2ccc(N3CC(CC4CCN(c5ccc(C(=O)N[C@H]6CC[C@H](Oc7ccc(C#N)c(Cl)c7)CC6)nn5)CC4)C3)cc2)c2cc[nH]c2c1=O` [I-147], the GI50 is less than 0.5 µM in experiment [1], more than 3 µM in experiment [2], less than 0.5 µM in the experiment with VCaP cells (Homo sapiens) and less than 0.5 µM in the experiment on T47D cells (Homo sapiens).

On to `Cn1cc(-c2cc(C(C)(C)O)ccc2Oc2ccc(N3CC(CC4CN(c5ccc(C(=O)N[C@H]6CC[C@H](Oc7ccc(C#N)c(Cl)c7)CC6)nn5)C4)C3)cc2)c2cc[nH]c2c1=O` [I-149], for which the GI50 (in experiment [1]; in experiment [2]; in the experiment on VCaP cells (Homo sapiens); with T47D cells (Homo sapiens)) was less than 0.5 µM throughout.

Consider `Cn1cc(-c2cc(C(C)(C)O)ccc2Oc2ccc(N3CC(OC4CN(c5ccc(C(=O)N[C@H]6CC[C@H](Oc7ccc(C#N)c(Cl)c7)CC6)nn5)C4)C3)cc2)c2cc[nH]c2c1=O` [I-150], for which the GI50 (in experiment [1]; in experiment [2]; in the experiment with VCaP cells (Homo sapiens); in the experiment on T47D cells (Homo sapiens)) was less than 0.5 µM in each case.

As for `CCS(=O)(=O)Cc1ccc(Oc2cccc(OCCOC3CCN(c4ncc(C(=O)N[C@H]5CC[C@H](Oc6ccc(C#N)c(Cl)c6)CC5)cn4)CC3)c2)c(-c2cn(C)c(=O)c3[nH]ccc23)c1` [I-152], the GI50 (in experiment [1]; in experiment [2]; in the experiment on VCaP cells (Homo sapiens); in the experiment on T47D cells (Homo sapiens)) was less than 0.5 µM each time.

`CCS(=O)(=O)Cc1ccc(Oc2ccc(CCCCC3CCN(c4ccc(C(=O)N[C@H]5CC[C@H](Oc6ccc(C#N)c(Cl)c6)CC5)nn4)CC3)cc2)c(-c2cn(C)c(=O)c3[nH]ccc23)c1` [I-157]: the 50% growth inhibitory concentration (GI50) (in experiment [1]; in experiment [2]; in the experiment with VCaP cells; with T47D cells) was less than 0.5 µM throughout.

For the compound `CCS(=O)(=O)c1ccc(Oc2ccc(CCC3CCN(c4ccc(C(=O)N[C@H]5CC[C@H](Oc6ccc(C#N)c(Cl)c6)CC5)nn4)CC3)nn2)c(-c2cn(C)c(=O)c3[nH]ccc23)c1` [I-221], the concentration for 50% growth inhibition (GI50) (in experiment [1]; in experiment [2]; with VCaP cells; in the experiment on T47D cells) was less than 0.5 µM each time.

On to `CCS(=O)(=O)c1ccc(OC2CC(OC3CC4(CCN(c5ccc(C(=O)N[C@H]6CC[C@H](Oc7ccc(C#N)c(Cl)c7)CC6)nn5)CC4)C3)C2)c(-c2cn(C)c(=O)c3[nH]ccc23)c1` (stereo partly shown) [I-229], for which the GI50 (in experiment [1]; in experiment [2]; in the experiment with VCaP cells; with T47D cells) was less than 0.5 µM each time.

On to `Cn1cc(-c2cc(S(C)(=O)=O)ccc2Oc2cccc(CCCC3CCN(c4ncc(C(=O)N[C@H]5CC[C@H](Oc6ccc(C#N)c(Cl)c6)CC5)cn4)CC3)c2)c2cc[nH]c2c1=O` [I-233], for which the GI50 (in experiment [1]; in experiment [2]; in the experiment with VCaP cells; in the experiment with T47D cells) was less than 0.5 µM each time.

As for `Cn1cc(-c2cc(N3CCCS3(=O)=O)ccc2Oc2ccc(CCC3CCN(c4ccc(C(=O)NC5CCC(Oc6ccc(C#N)c(Cl)c6)CC5)nn4)CC3)cc2)c2cc[nH]c2c1=O` (stereo not shown) [I-239, N-[4-(3-chloro-4-cyano-phenoxy)cyclohexyl]-6-[4-[2-[4-[4-(1,1-dioxo-1,2-thiazolidin-2-yl)-2-(6-methyl-7-oxo-1H-pyrrolo[2,3-c]pyridin-4-yl)phenoxy]phenyl]ethyl]-1-piperidyl]pyridazine-3-carboxamide], the GI50 (in experiment [1]; in experiment [2]; in the experiment on VCaP cells (Homo sapiens); with T47D cells (Homo sapiens)) was less than 0.5 µM in each case.

As to `CCS(=O)(=O)Cc1ccc(OC2CC(OCC3CCN(c4ccc(C(=O)NC5CCC(Oc6ccc(C#N)c(Cl)c6)CC5)nn4)CC3)C2)c(-c2cn(C)c(=O)c3[nH]ccc23)c1` (stereo not shown) [I-240, N-((1r,4r)-4-(3-chloro-4-cyanophenoxy)cyclohexyl)-6-(4-(((1r,3r)-3-(4-((ethylsulfonyl)methyl)-2-(6-methyl-7-oxo-6,7-dihydro-1H-pyrrolo[2,3-c]pyridin-4-yl)phenoxy)cyclobutoxy)methyl)piperidin-1-yl)pyridazine-3-carboxamide], the GI50 (in experiment [1]; in experiment [2]; with VCaP cells; in the experiment with T47D cells) was less than 0.5 µM each time.

With `Cn1cc(-c2cc(S(C)(=O)=O)ccc2OC(CCCCN2CCN(c3ccc(C(=O)NC4CCC(Oc5ccc(C#N)c(Cl)c5)CC4)nn3)CC2)C2CC2)c2cc[nH]c2c1=O` (stereo not shown) [I-244, N-[4-(3-chloro-4-cyano-phenoxy)cyclohexyl]-6-[4-[5-cyclopropyl-5-[2-(6-methyl-7-oxo-1H-pyrrolo[2,3-c]pyridin-4-yl)-4-methylsulfonyl-phenoxy]pentyl]piperazin-1-yl]pyridazine-3-carboxamide], the GI50 (in experiment [1]; in experiment [2]; in the experiment on VCaP cells (Homo sapiens); in the experiment with T47D cells (Homo sapiens)) was less than 0.5 µM in each case.

For `Cn1cc(-c2cc(C3CCCS3(=O)=O)ccc2OC2CC(OCC3CCN(c4ccc(C(=O)NC5CCC(Oc6ccc(C#N)c(Cl)c6)CC5)nn4)CC3)C2)c2cc[nH]c2c1=O` (stereo not shown) [I-245, N-[4-(3-chloro-4-cyano-phenoxy)cyclohexyl]-6-[4-[[3-[4-(1,1-dioxothiolan-2-yl)-2-(6-methyl-7-oxo-1H-pyrrolo[2,3-c]pyridin-4-yl)phenoxy]cyclobutoxy]methyl]-1-piperidyl]pyridazine-3-carboxamide], the GI50 (in experiment [1]; in experiment [2]; in the experiment on VCaP cells (Homo sapiens); with T47D cells (Homo sapiens)) was less than 0.5 µM throughout.

Consider `Cn1cc(-c2cc(N3CCCCS3(=O)=O)ccc2Oc2ccc(CCC3CCN(c4ccc(C(=O)NC5CCC(Oc6ccc(C#N)c(Cl)c6)CC5)nn4)CC3)cc2)c2cc[nH]c2c1=O` (stereo not shown) [I-246, N-[4-(3-chloro-4-cyano-phenoxy)cyclohexyl]-6-[4-[2-[4-[4-(1,1-dioxothiazinan-2-yl)-2-(6-methyl-7-oxo-1H-pyrrolo[2,3-c]pyridin-4-yl)phenoxy]phenyl]ethyl]-1-piperidyl]pyridazine-3-carboxamide], for which the GI50 (in experiment [1]; in experiment [2]; in the experiment with VCaP cells; in the experiment with T47D cells) was less than 0.5 µM each time.

By GI50 is commonly meant the concentration at which growth is held to half of that of the control.
